For data set [1], the target named is T1, CSF-1R (Homo sapiens, UniProt P07333).
T1 construct: purchased Invitrogen PV3249 (lot 662393N)
Kind of data set: HTRF biochemical assay, CSF-1R. The conditions noted are these: Table 4. In outline:
(§1)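 Kinase phosphorylation of a FAM-labelled peptide substrate, with ATP and Mn^2+ cofactors, run for 3 h at 25 °C, with optional enzyme–compound pre-incubation. Reactions were quenched with EDTA, and phosphopeptide was detected by anti-phosphotyrosine antibody HTRF.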

Data set [2] has as its target T2, PDGFRα (Homo sapiens, UniProt P16234).
T2 construct: purchased Millipore 14-467 (lot 26321_ACTI)
The experiment in a line: HTRF biochemical assay, PDGFRα. The following applies: Table 4, read-out: PDFGRα Biochemical IC50 avg. In outline: as §1
A general note: TR-FRET usually uses a lanthanide donor and a delayed reading to cut background.

Data set [3] has as its target T3, KIT-NanoLuc fusion in HEK293 cells (Homo sapiens, UniProt P10721).
T3 construct: expressed in transfected cells; host or cells: HEK293, transient transfection
The experiment in a line: NanoBRET cellular target engagement assay, KIT. The format is cell-based. Here is the method:
(§2) Exemplary compounds were tested for their ability to inhibit target engagement of KIT or CSF-1R kinases through competitive displacement of a Nano-Luc luciferase kinase fusion in HEK293 cells.
(§3) The NanoBRET target engagement assay employs an energy transfer technique designed to measure molecular proximity in living cells. The assay measures the apparent affinity of test compounds by competitive displacement of the NanoBRET tracer, reversibly bound to a NanoLuc luciferase-kinase fusion construct in cells. The intracellular binding affinity and selectivity are physiologically relevant and fundamental to the pharmacological mechanism of the compounds. While biochemical and biophysical assays identify the kinase inhibitors in vitro, the NanoBRET target engagement assay serves to determine the direct interaction of the compounds binding to target kinases in cells.
(§4) HEK293 cells transiently expressing NanoLuc-DDR1 fusion vector were seeded into 384-well plates and treated with the Tracer K-4 and compound for 1 hour. The BRET signal was measured on an EnVision 2104 multilabel microplate reader. NanoBRET Target Engagement Assay in HEK293 cells transiently transfected with KIT and CSF1R-NanoLuc Fusion Vector. HEK293 cells were transfected with […] KIT or CSF1R-NanoLuc Fusion Vector and […] carrier DNA. The transfected cells were treated with test compounds (starting at 10 μM, 10-dose with 3-fold dilution) and reference compound (desatinib) (starting at 1 μM, 10-dose with 3-fold dilution). Percent inhibition due to compound activity was calculated to determine IC50.
In general terms: Bioluminescence resonance energy transfer reports proximity on the nanometre scale.

For data set [4], the target named is T4, CSF1R-NanoLuc fusion in HEK293 cells (Homo sapiens, UniProt P07333).
T4 construct: expressed in transfected cells; host or cells: HEK293, transient transfection
The experiment in a line: NanoBRET cellular target engagement assay, CSF-1R. In kind it is cell-based. The protocol: as §2, §3, §4

Data set [5] in a line: Caco-2 permeability assay. In kind it is in vitro ADME. The following applies: human. In outline:
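Compound at 2.00 μM was run A→B and B→A in duplicate through Caco-2 layers (HBSS, 10.0 mM HEPES, pH 7.40; 37 °C, 2 h; final DMSO under 1%). Donor and receiver levels measured by LC-MS/MS gave Papp, efflux ratio (BA/AB) and recovery; lucifer yellow confirmed integrity.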

In patent US20240254119A1 (THIRD HARMONIC BIO, INC., priority 2022, published 2024) one finds IC50, efflux ratio and Papp A→B data, which are given here for 19 molecules.

The term IC50 denotes the concentration that inhibits the measured activity by half. As usually defined, the efflux ratio is a quotient of directional permeabilities that is used to spot active efflux. The Papp A→B is how fast a substance crosses the layer from the apical side.

T2 sequence (P16234 24-1089): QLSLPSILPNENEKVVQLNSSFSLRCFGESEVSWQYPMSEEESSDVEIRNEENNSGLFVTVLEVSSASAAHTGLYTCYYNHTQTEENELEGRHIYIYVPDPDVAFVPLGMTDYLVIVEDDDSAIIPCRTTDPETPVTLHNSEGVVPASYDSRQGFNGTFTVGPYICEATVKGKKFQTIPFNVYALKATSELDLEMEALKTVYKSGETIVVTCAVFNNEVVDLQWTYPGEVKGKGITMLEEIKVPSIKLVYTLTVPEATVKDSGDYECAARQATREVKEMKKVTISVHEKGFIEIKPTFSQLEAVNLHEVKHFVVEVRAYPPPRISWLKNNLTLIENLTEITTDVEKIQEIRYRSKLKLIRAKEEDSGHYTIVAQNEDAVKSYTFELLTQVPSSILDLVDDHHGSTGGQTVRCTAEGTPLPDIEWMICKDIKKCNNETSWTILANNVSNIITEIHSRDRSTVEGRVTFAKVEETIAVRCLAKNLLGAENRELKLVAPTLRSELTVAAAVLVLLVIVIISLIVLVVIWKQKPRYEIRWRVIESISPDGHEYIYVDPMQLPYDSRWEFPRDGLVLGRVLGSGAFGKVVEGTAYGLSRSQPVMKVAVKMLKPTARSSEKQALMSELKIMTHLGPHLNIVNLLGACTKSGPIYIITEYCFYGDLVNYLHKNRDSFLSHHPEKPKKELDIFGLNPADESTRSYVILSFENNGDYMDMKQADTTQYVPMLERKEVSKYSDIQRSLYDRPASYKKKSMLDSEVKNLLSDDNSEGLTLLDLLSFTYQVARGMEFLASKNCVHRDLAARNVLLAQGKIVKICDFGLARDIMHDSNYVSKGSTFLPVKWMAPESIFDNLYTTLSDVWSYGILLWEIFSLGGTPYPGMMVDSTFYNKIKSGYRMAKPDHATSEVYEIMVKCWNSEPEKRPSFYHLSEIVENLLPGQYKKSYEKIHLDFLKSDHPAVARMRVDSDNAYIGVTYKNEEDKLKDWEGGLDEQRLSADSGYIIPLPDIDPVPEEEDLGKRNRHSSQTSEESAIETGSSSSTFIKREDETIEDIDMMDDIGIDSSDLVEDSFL
T3 sequence (P10721 26-976): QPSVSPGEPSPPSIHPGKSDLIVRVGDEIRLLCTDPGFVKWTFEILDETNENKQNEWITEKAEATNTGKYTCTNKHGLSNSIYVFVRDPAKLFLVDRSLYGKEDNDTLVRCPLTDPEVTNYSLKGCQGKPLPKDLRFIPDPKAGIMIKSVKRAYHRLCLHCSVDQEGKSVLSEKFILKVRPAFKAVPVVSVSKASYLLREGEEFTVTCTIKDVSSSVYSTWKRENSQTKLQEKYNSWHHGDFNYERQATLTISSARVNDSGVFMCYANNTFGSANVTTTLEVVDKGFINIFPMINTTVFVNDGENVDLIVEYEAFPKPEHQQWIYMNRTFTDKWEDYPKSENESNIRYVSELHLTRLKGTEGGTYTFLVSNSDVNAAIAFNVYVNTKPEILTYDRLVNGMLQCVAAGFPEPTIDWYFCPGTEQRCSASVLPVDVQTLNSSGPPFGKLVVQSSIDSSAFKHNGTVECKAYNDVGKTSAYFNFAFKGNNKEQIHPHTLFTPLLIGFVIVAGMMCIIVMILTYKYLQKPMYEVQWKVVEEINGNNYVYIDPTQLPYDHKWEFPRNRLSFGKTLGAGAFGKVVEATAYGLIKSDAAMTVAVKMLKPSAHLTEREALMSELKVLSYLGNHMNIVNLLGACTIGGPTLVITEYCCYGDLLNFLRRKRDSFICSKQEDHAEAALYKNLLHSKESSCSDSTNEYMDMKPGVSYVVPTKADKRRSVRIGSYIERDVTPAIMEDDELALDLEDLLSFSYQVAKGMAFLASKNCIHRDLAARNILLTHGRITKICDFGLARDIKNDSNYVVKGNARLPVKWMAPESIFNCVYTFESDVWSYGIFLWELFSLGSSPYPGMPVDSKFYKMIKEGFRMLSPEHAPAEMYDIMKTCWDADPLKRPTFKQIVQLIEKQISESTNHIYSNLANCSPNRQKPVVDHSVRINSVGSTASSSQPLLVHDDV
T1 sequence (P07333 20-972): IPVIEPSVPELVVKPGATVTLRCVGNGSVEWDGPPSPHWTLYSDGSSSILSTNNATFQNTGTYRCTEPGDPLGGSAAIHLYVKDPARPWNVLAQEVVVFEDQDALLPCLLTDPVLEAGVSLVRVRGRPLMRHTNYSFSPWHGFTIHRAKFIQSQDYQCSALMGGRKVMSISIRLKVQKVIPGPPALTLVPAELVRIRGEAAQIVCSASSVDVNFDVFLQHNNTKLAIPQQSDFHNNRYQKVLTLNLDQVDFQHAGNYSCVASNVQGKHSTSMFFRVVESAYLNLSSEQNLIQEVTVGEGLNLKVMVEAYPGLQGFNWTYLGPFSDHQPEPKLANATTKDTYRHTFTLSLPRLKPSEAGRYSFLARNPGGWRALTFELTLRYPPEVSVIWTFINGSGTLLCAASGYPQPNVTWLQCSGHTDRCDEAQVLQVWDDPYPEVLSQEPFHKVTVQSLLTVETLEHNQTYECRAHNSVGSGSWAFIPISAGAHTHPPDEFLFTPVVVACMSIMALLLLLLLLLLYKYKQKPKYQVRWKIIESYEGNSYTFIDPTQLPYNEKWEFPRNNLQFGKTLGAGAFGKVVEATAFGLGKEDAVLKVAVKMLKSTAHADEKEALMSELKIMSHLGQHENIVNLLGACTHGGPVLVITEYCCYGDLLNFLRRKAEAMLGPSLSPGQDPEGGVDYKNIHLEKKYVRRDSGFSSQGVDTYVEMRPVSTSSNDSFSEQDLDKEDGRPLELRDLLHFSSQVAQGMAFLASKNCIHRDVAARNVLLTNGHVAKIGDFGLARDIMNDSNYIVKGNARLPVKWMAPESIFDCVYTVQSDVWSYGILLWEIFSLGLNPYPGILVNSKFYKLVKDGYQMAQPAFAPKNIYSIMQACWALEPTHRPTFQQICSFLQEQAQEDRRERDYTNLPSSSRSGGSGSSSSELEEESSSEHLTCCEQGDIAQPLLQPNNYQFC
T4 sequence (P07333 20-972): as above

As to `COc1ccn2c(C(=O)Nc3cc(-c4noc(C[C@H](C)O)n4)ccc3C)cnc2c1` [Compound I-94], the IC50 is at most 50 nM in data set [1] and 50 to 500 nM in data set [2].
Consider `COCCOCc1ccn2c(C(=O)Nc3cc(-c4noc([C@H]5C[C@@H]5F)n4)ccc3C)cnc2c1` [Compound I-84], for which the values for the IC50 in data set [1] and in data set [2] were at most 50 nM and 500 to 5000 nM, respectively.
Regarding `Cc1ccc(-c2noc([C@H]3C[C@@H]3F)n2)cc1NC(=O)c1cnc2ccc(F)cn12` [Compound I-288], the IC50 lay within 50 to 500 nM in data set [1] and 500 to 5000 nM in data set [2].
As to `COc1ccn2c(C(=O)Nc3cc(-c4noc(CC5CC(F)(F)C5)n4)ccc3C)cnc2c1` [Compound I-91], the IC50 in data set [1] and in data set [2] was 50 to 500 nM each time.
Regarding `Cc1ccc(-c2noc([C@H]3C[C@@H]3F)n2)cc1NC(=O)c1cnc2cc(OC(F)(F)F)ccn12` [Compound I-87], the IC50 in data set [1] lay in the range of 50 to 500 nM; in data set [2], 5000 to 30000 nM.
As to `COc1ccc2ncc(C(=O)Nc3cc(-c4noc(C[C@@H](C)O)n4)ccc3C)n2c1` [Compound I-119], the IC50 in data set [1] and in data set [2] was 500 to 5000 nM each time.
Regarding `COC(=O)N1CC(c2nc(-c3ccc(Cl)c(NC(=O)c4cnc5ccccn45)c3)no2)C1` [Compound I-339], the IC50 in data set [1] and in data set [2] was 500 to 5000 nM each time.
On to `Cc1ccc(-c2noc([C@H]3C[C@@H]3F)n2)cc1NC(=O)c1cnc2cc(OC(C)C)ccn12` [Compound I-88], for which the IC50 was at most 50 nM in data set [1], 500 to 5000 nM in data set [2], at most 100 nM in data set [3] and above 10 µM in data set [4].
As to `CCOc1ccn2c(C(=O)Nc3cc(-c4noc([C@H]5C[C@@H]5F)n4)ccc3C)cnc2c1` [Compound I-93], the IC50 in data set [1] was at most 50 nM; in data set [2], 50 to 500 nM.
On to `Cc1ccc(-c2noc(CC(O)C(F)F)n2)cc1NC(=O)c1cnc2ccccn12` (stereo not shown) [Compound I-122], for which the IC50 in data set [1] lay in the range of 50 to 500 nM; in data set [2] it was 500 to 5000 nM.
Regarding `Cc1ccc(-c2noc(CC(O)C(F)F)n2)cc1NC(=O)c1cnc2ccccn12` (stereo not shown) [Compound I-114], the IC50 in data set [1] is 50 to 500 nM; in data set [2], 5000 to 30000 nM; in data set [3] it was at most 100 nM; in data set [4], above 10 µM.
On to `Cc1ccc(-c2noc(CCO)n2)cc1NC(=O)c1cnc2ccccn12` [Compound I-306], for which the half-maximal inhibitory concentration (IC50) in data set [1] and in data set [2] was 500 to 5000 nM in each case.
Turning to `Cc1ccc(-c2noc([C@H]3C[C@@H]3F)n2)cc1NC(=O)c1cnn2ccccc12` [Compound I-109], the IC50 in data set [1] was in the range of 50 to 500 nM; in data set [2], 500 to 5000 nM.
`Cc1ccc(-c2noc([C@H]3C[C@@H]3F)n2)cc1NC(=O)c1cnc2cc(COCC(C)(C)O)ccn12` [Compound I-71, N-[5-[5-[(1R,2S)-2-fluorocyclopropyl]-1,2,4-oxadiazol-3-yl]-2-methyl-phenyl]-7-[(2-hydroxy-2-methyl-propoxy)methyl]imidazo[1,2-a]pyridine-3-carboxamide]: the IC50 in data set [1] is at most 50 nM; in data set [2], 5000 to 30000 nM; in data set [3], at most 100 nM; in data set [4] it was above 10 µM. Besides, the efflux ratio at 2 h, 2 μM in data set [5] (Caco-2, pH 7.4) turned out to be 6.78. Also, in data set [5] (pH 7.4, Caco-2, apical to basolateral), the Papp A→B at 2 h, 2 μM worked out at 6.65 ×10⁻⁶ cm/s.
As to `COc1ccn2c(C(=O)Nc3cc(-c4noc(CC(O)C(F)F)n4)ccc3C)cnc2c1` (single isomer, unassigned) [Compound I-76], the IC50 in data set [1] was at most 50 nM; in data set [2] it was 50 to 500 nM.
Turning to `Cc1ccc(-c2noc(CC(C)(C)O)n2)cc1NC(=O)c1cnc2ccccn12` [Compound I-336], the IC50 in data set [1] and in data set [2] was 50 to 500 nM throughout.
Regarding `COC(=O)N1CC(c2nc(-c3ccc(C(F)F)c(NC(=O)c4cnc5ccccn45)c3)no2)C1` [Compound I-225], the IC50 in data set [1] lay within 500 to 5000 nM; in data set [2], 5000 to 30000 nM.
Regarding `COc1ccn2c(C(=O)Nc3cc(-c4noc(C5CC(F)(F)C5)n4)ccc3C)cnc2c1` [Compound I-96], the figures for the IC50 in data set [1] and in data set [2] were at most 50 nM and 50 to 500 nM, respectively.
Consider `Cc1ccc(-c2noc(C3CC(OCCF)C3)n2)cc1NC(=O)c1cnc2ccccn12` (stereo not shown) [Compound I-369], for which the IC50 in data set [1] and in data set [2] was 5000 to 30000 nM throughout.
